Source: US20060159617A1, “Small technetium-99m and rhenium labeled agents and methods for imaging tissues, organs and tumors” (priority 2002, published 2006)

Columns and labels:
[1] = target: T1, 5HT1A receptor (Rattus norvegicus, UniProt P19327); assay: 5HT1A receptor competition binding assay with [3H]-8-OH-DPAT; conditions: apparent Ki, rat hippocampus
T1 construct: The brains were rapidly removed, and hippocampus, frontal cortex, hypothalamus, and striatum were hand-dissected on ice; from tissue; host or cells: male Sprague-Dawley rat hippocampus membranes
T1 sequence (P19327 1-422): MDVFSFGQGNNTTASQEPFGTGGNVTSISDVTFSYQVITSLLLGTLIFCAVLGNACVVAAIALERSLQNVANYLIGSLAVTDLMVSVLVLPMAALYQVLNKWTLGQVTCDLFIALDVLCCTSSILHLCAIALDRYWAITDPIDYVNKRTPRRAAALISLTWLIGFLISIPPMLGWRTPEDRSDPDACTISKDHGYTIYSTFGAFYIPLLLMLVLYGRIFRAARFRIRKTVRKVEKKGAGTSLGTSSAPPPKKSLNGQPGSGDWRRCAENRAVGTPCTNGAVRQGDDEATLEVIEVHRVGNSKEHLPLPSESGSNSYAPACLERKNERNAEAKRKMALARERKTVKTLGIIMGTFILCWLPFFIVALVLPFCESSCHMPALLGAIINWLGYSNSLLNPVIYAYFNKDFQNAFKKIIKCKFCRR
Description: The in vitro 5HT1A binding affinities of rhenium coordinated complexes were determined in a competition assay using rat hippocampus and high-affinity 5HT1A-ligand [^3H]-8-OH-DPAT (135 Ci/mmol, NEN Life Science Inc., Cambridge, Mass.). See, Brain Res. 1995, 673, 217-225.
Male Sprague-Dawley rats (weighing 150-170 g) were sacrificed using anesthesia agent isoflurane. The brains were rapidly removed, and hippocampus, frontal cortex, hypothalamus, and striatum were hand-dissected on ice and stored at −70° C. Tissue was thawed at room temperature and homogenized using a Brinkmann Polytron tissue disrupter in 50 volumes (wt/vol) of ice-cold 50 mM Tris-HCl buffer (pH 7.4). The suspension was centrifuged twice at 27,000 g for 20 min at 4° C. The membrane pellets were resuspended in 50 volumes of (wt/vol) Tris-HCl buffer and incubated at 37° C. for 20 min in a water bath, before a final centrifugation step (27,000 g; 20 min; 4° C.). The final tissue pellets were stored at −70° C. until assayed.
(§1) Twelve concentrations of the nonradioactive rhenium complexes ranging from 1×10^−11 to 1×10^−4 and protein samples (0.15 mg of membrane protein) were incubated with 1.5 nM [^3H]-8-OH-DPAT in a total volume of 0.25 mL of Tris-HCl (50 mM, pH 7.4, 10 mM MgSO4). Incubations were carried out for 60 min at 25° C. All assays were terminated by dilution with 5 mL of ice-cold Tris-HCl (10 mM), pH 7.4, and solution were filtered through glass-fiber filters (Whatman GF/F; presoaked in 0.5% polyethyleneimine for 30 min at 25° C.). Filters were then washed three times with 5 mL of ice-cold Tris-HCl (50 mM, pH 7.4), and counted in Hionic-Fluor cocktail (Packard, Groningen, the Netherlands). The corresponding IC50 values were determined with Origin 6.0 software (OriginLab, Northampton, Mass.) and were used for the calculation of the apparent Ki values with the Cheng-Prusoff equation. See, Biochem. Pharmacol. 1973, 22, 3099-3108.

[2] = target: α1 receptor; assay: Alpha-1 receptor competition binding assay with [3H]-Prazosin; conditions: apparent Ki, rat frontal cortex
Description: The in vitro α1 receptor binding affinities of rhenium coordinated complexes were determined in a competition assay using rat frontal cortex and high-affinity α1 ligand [^3H]-Prazosin (80 Ci/mmol, NEN Life Science Inc., Cambridge, Mass.). See, Eur. J. Nucl. Med. 2002, 29, 82-87.
as §1, with “The frontal cortex of rat brain was prepared as described above and store at −70° C. until used in the binding assays. Ten” for “Twelve”, “1×10^−10” for “1×10^−11”, “1×10^−3” for “1×10^−4”, “[^3H]-Prazosin” for “[^3H]-8-OH-DPAT”, “Biocheni.” for “Biochem.”

[3] = target: T2, σ2 receptor (Rattus norvegicus, UniProt Q5U3Y7); assay: σ2 receptor competition binding assay with [3H]-DTG, σ1 masked; conditions: apparent Ki, rat liver membranes
T2 construct: Rat liver membranes were prepared from male Sprague-Dawley rat livers as previously described; from tissue; host or cells: male Sprague-Dawley rat liver membranes
T2 sequence (Q5U3Y7 1-176): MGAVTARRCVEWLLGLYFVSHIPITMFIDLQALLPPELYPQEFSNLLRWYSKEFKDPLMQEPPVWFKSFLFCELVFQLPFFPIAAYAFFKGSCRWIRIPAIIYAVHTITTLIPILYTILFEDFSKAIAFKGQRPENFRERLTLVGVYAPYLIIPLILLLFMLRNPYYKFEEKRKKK
Description: Rat liver membranes were prepared from male Sprague-Dawley rat livers as previously described (Eur. J. Pharmacol.—Mol. Pharmacol. Sect. 1994, 268, 9-18). The in vitro σ2 receptor binding affinities of rhenium coordinated complexes were determined in a competition assay using rat livers and [^3H]-DTG (31 Ci/mmol, NEN Life Science Inc., Cambridge, Mass.) as radioligand in the presence of 10 μM 1-pyrrolidinylethyl 3,4-dichlorophenylacetate oxalate (ACT915 oxalate) to mask σ1 receptors (Bioorg. & Med. Chem. Lett. 2000, 10, 17-18). Competition assays were performed with twelve concentrations of the nonradioactive rhenium complexes ranging from 1×10^−10 to 1×10^−3 and protein samples (0.15 mg of membrane protein) in a total volume of 0.25 mL of Tris-HCl (50 mM, pH 8.0) for 120 min at 25° C. All other manipulations and data analysis were performed as described vide supra for the σ1-receptor assays.

O=C1CN(CCCN2CCC(Cc3ccccc3)CC2)CC[S][Re]2(=[O])[S]CC[N]12 (stereo not drawn) [Re-15]
Ki [1]: 589 ± 70 nM
Ki [2]: 322 ± 61 nM
Ki [3]: 136 ± 22 nM

COc1ccccc1C1CCN(CCCN2CC[S][Re]3(=[O])[S]CC[N]3C(=O)C2)CC1 (stereo not drawn) [Re-16]
Ki [1]: 4.5 ± 0.4 nM
Ki [2]: 48 ± 9 nM
Ki [3]: 336 ± 70 nM
